Results from patent publication US20060122153A1, “Antineoplastic ether lipid compounds with modifications at the sn-2 carbon” (priority 2003, published 2006).
“And” between values parts separate entries of the source, which are not always exact repeats. Identical values can stand only once. “Also recorded” adds a separate entry of the source. Like-named read-outs stand apart in the source and are kept apart here.

Legend:
[1] = test system: platelets in dog whole blood; assay: Platelet aggregation in whole blood (Chronolog whole blood aggregometer)
Procedure: (§5) Briefly, whole citrated blood is diluted 1:2 with sterile saline and placed in a warm chamber with a mini stir bar. An electronic probe, measuring electrical resistance, is inserted in the sample. The aggregometer is calibrated and the baseline is observed to detect any spontaneous aggregation. The test sample is added and allowed to run for at least 6 minutes. If the sample is an agonist the platelets will start to aggregate and stick to the electronic probe causing resistance across the electrodes to increase. This resistance, in ohms, is measured 6 minutes post addition of sample. The test samples are run at 25, 100, 200, 400 and 800 uM and compared to 100 uM L-ET-18-OCH3.
(§6) Collection of Blood Sample for in vitro Platelet Aggregation Testing: Venous blood is collected in 4.5 mL Vacutainer tubes containing 0.129 M sodium citrate using a 21G needle or larger. Blood is immediately mixed by gentle inversion 15-20 times and kept at room temperature. Dilution ratio is 1 to 9 (3.8% citrate solution:blood). One (2.0 mL) Vacutainer tube containing EDTA is also collected for platelet counts. Complete blood counts (CBC) are measured on the CDC Technologies Hemavet 1500 to ensure that the test subject's platelets are within normal range. Amy vials of hemolytic blood or blood containing any clots should be discarded. Platelet aggregation testing must be completed within 3 hours of blood collection. After this time the ability of platelets to aggregate decreases.
(§7) Dilutions were prepared in PBS or saline at 40× concentration. (25 uL test sample are added to 1000 uL diluted blood (1:40)).

[2] = test system: NIH-3T3; assay: In vitro growth inhibition (GI50), SRB assay, normal fibroblast; assay type: cell-based, mouse; conditions: NIH-3T3 normal murine fibroblast cell line, 3 days
From the text: The following cell lines were selected from the cell bank for screening and GI50 studies: MCF-7: human breast tumor, MCF-7/ADR: MCF-7 adriamycin resistant subline, HT-29: human colon carcinoma, A-549: human non-small cell lung cancer, NIH-3T3: mouse Swiss embryo fibroblast and WI-38: human lung fibroblast, SKMEL-28: human melanoma, Lewis Lung: mouse lung carcinoma, DU-145: prostate carcinoma, B16F10: mouse melanoma, L1210: murine lymphocytic leukemia, P-388: murine leukemia, U-937: human histolytic lymphoma. Except HT-29, WI-38, NIH-3T3 and Lewis Lung which were obtained from the American Type Culture Collection (Rockville, Md.) all the other cell lines were obtained from National Cancer Institute—Frederick Research Facility (Frederick, Md.). All the cell lines were grown in RPMI-1640 medium containing 10% fetal bovine serum (FBS) except WI-38 and DU-145 which were grown in EMEM+10% FBS at 37° C., 5% CO2 and 100% humidity and NIH-3T3, Lewis Lung, B16F10 and L1210 which were grown in DMEM containing 10% FBS (10% HS for L1210). […]
The test compounds were made in-house and the compounds were dissolved PBS or saline at a stock concentration of approximately 20 mM, which is 400 times the desired final maximum test concentration. […] After 3 days of incubation, cell growth was determined.
The SRB assay was performed as described by Monks, A., Scudiero, D., Skehan, P., Shoemaker, R., Paull, K., Vistica, D., Hose, C., Langley, J., Cronise, P., and Vaigro-Wolff, A. Feasibility of a high-flux anticancer drug screen using a diverse panel of cultured human tumo-r cell lines. […] Bound SRB was solubilized with Tris buffer (10 mM), and the ODs were read using an automated plate reader (Bio-Rad, Model 3550-UV) at 490 nm. Background values were subtracted from the test data, and the data was calculated as a % of control. […] Percentage growth was calculated as described by, Peters, A. C., Ahmad, I., Janoff, A. S., Pushkareva, M. Y., and Mayhew, E. Growth Inhibitory effects of liposome-associated 1-o-octadecyl-2-o-methyl-sn-glycero-3-phosphocholine. […]

[3] = test system: whole human blood; assay: Hemolysis assay with whole human blood
Procedure: Venous blood was collected in 10 mL Vacutainer tubes containing EDTA using a 21G needle or larger.
Stock solutions of 20 mM test sample in phosphate buffered saline (PBS) were prepared as follows:
Then 270 uL of whole blood was aliquotted in duplicate mini test tubes using positive displacement pipet. Next, 30 uL of each working stock solution, in duplicate, was added to the whole blood. Next, 30 uL of PBS was added for background control. The samples were capped or sealed with Parafilm and gently mixed. The blood was incubated at 37° C. in gentle rotating water bath for 30 minutes. Final concentration of test sample was 10% of working stock solution.
Total hemolysis samples of 1,% and 10% whole blood samples in deionized water were prepared as follows:
The samples were freeze thawed 3× in liquid nitrogen then wafer bath. The samples were then centrifuged 10 minutes at 1500 RPM. Next, 100 uL of supernatant was transferred to a cuvette and 1 mL deionized water was added. The absorbance was read at 550 nm vs. water blank.
H10 and H50 were calculated by graphing Percent Total Hemolysis vs. Test Sample Concentration. The Percent Total Henolysis=(average o.d of test sample)/(average o.d. of total hemolysis sample)×100

[4] = test system: MCF7/ADR; assay: In vitro growth inhibition (GI50), SRB assay; assay type: cell-based, human; conditions: MCF7/ADR tumor cell line, 3 days
From the text: (§1) The following cell lines were selected from the cell bank for screening and GI50 studies: MCF-7: human breast tumor, MCF-7/ADR: MCF-7 adriamycin resistant subline, HT-29: human colon carcinoma, A-549: human non-small cell lung cancer, NIH-3T3: mouse Swiss embryo fibroblast and WI-38: human lung fibroblast, SKMEL-28: human melanoma, Lewis Lung: mouse lung carcinoma, DU-145: prostate carcinoma, B16F10: mouse melanoma, L1210: murine lymphocytic leukemia, P-388: murine leukemia, U-937: human histolytic lymphoma. Except HT-29, WI-38, NIH-3T3 and Lewis Lung which were obtained from the American Type Culture Collection (Rockville, Md.) all the other cell lines were obtained from National Cancer Institute—Frederick Research Facility (Frederick, Md.). All the cell lines were grown in RPMI-1640 medium containing 10% fetal bovine serum (FBS) except WI-38 and DU-145 which were grown in EMEM+10% FBS at 37° C., 5% CO2 and 100% humidity and NIH-3T3, Lewis Lung, B16F10 and L1210 which were grown in DMEM containing 10% FBS (10% HS for L1210). All the adherent cell lines were detached from the culture flasks by addition of 2-3 ml of 0.05% trypsin-EDTA. Thereafter, trypsin was inactivated by addition of 10 mL of 10% serum-containing RPMI-1640 medium. Cells were separated into a single-cell suspension by gentle pipetting action. Depending on the cell type, […] to 10,000 cells were plated onto 96-well plates a day prior to the drug treatment, in a volume of 100 μl per well.
(§2) The test compounds were made in-house and the compounds were dissolved PBS or saline at a stock concentration of approximately 20 mM, which is 400 times the desired final maximum test concentration. The stock solutions were then diluted with complete medium to twice the desired final concentration. 100 μl aliquots of each dilution was then added to the designated wells. After 3 days of incubation, cell growth was determined.
(§3) The SRB assay was performed as described by Monks, A., Scudiero, D., Skehan, P., Shoemaker, R., Paull, K., Vistica, D., Hose, C., Langley, J., Cronise, P., and Vaigro-Wolff, A. Feasibility of a high-flux anticancer drug screen using a diverse panel of cultured human tumo-r cell lines. J Natl Cancer Inst, 83: 757-766, 1991 with minor modifications. Following drug treatment, cells were fixed with 50 μl of cold 50% (wt/vol) trichloroacetic acid (TCA) for 60 minutes at 4° C. The supernatant was discarded, and the plates were washed six times with deionized water and then air dried. The precipitate was stained with 100 μl SRB solution (0.4% wt/vol in 1% acetic acid) for 10 minutes at room temperature, and free SRB was removed by washing three times with 1% acetic acid, and the plates were then air dried. Bound SRB was solubilized with Tris buffer (10 mM), and the ODs were read using an automated plate reader (Bio-Rad, Model 3550-UV) at 490 nm. Background values were subtracted from the test data, and the data was calculated as a % of control. […] Percentage growth was calculated as described by, Peters, A. C., Ahmad, I., Janoff, A. S., Pushkareva, M. Y., and Mayhew, E. Growth Inhibitory effects of liposome-associated 1-o-octadecyl-2-o-methyl-sn-glycero-3-phosphocholine. Lipids, 32:1045-1054, 1997. The raw optical density data Was imported into an Excel spreadsheet to determine dose responses. […] By varying drug concentration,-dose response curves were generated and the GI-50 values were calculated. The GI50 values for each experiment were calculated using data obtained from three duplicate wells on two separate plates.
(§4) For growth inhibitory evaluation, we used five human tumor cell lines (U937; HT29; A549; MCF7; MCF7/ADR) and two normal fibroblast cell lines (NIH-3T3, murine; WI-38, human).

[5] = test system: HT29; assay: In vitro growth inhibition (GI50), SRB assay; assay type: cell-based, human; conditions: HT29 tumor cell line, 3 days
From the text: as §1, §2, §3, §4

[6] = test system: MCF7; assay: In vitro growth inhibition (GI50), SRB assay; assay type: cell-based, human; conditions: MCF7 tumor cell line, 3 days
From the text: as §1, §2, §3, §4

[7] = test system: A549; assay: In vitro growth inhibition (GI50), SRB assay; assay type: cell-based, human; conditions: A549 tumor cell line, 3 days
From the text: as §1, §2, §3, §4

[8] = test system: WI38; conditions: WI38 normal human fibroblast cell line, 3 days
From the text: as §1, §2, §3, §4

[9] = test system: DEVDase activity (Caspase 3) in Jurkat T cells; assay: DEVDase activity in Jurkat T cells; assay type: cell-based; conditions: Jurkat T cells, 6 hours
Procedure: Suspension cells were seeded at density 3.2×10^5 cells per mL in RPMI-1640 medium (Bio-Whittaker) supplemented with 10% heat inactivated FBS (Bio-Whittaker). Cells were pre-incubated overnight prior to treatment with the ether lipid compounds of the invention. At treatment time cell density was 5×10^5 cells per mL. Cells were incubated with the ether lipid compounds of the invention for various periods of time, usually 6 hours. Cells were collected, washed with 1×DPBS and resuspended in 110 μl of Buffer A (10 mM BEPES-KOH, pH 7.4, 2 mM EDTA, 0.1% CHAPS, 5 mM DTT, 1:100 dilution of protease inhibitors cocktail (Sigma)-DTT and protease inhibitors should be added just before use). After 10 min incubation on ice in order to lyse cells, samples were frozen on dry ice/ethanol and kept at −20° C. until analysis.
At the time of analysis of DEVDase activity frozen pellets were kept on ice until thawed and after vigorous vortexing samples were centrifuged at 14,000 rpm for 6 min.; Supernatant was transferred into another tube and 2 μl, in triplicates, were used for protein measurement using Bradford reagent (Bio-Rad).
Measurement of DEVDase activity was carried out in 100 μl volume, where 10 μg of protein was delivered in 50 μl of Buffer A and 40 μM of substrate Ac-DEVD-AMC was also delivered in 50 μl of Buffer A. All measurements were done in triplicates. Reaction was carried out for 1 hour and generation of fluorescent product of reaction (aminomethylcoumarin) was measured by reading fluorescence at 1em 460 nm (1ex 360 nm). Changes in DEVDase activity were calculated after subtraction of background fluorescence of substrate incubated without proteins, and were expressed as percent of control (DEVDase activity in untreated cells). Average of DEVDase activity, calculated from few independent experiments, was used to calculate percent of L-ether lipid-induced DEVDase activity.

[10] = test system: U937; assay: In vitro growth inhibition (GI50), cell growth assay; assay type: cell-based, human; conditions: U937 tumor cell line, 3 days
Procedure: After 3 days of incubation, cell growth was determined.
To determine the Growth Inhibition in the suspension cell lines, cell numbers were directly counted instead of using the SRB assay which determines the total cell protein. One day prior to the drug treatment, 40,000 cells per well were seeded into 24-well plates in a volume of 0.5 mL. Stock solutions were diluted with complete medium to twice the desired final concentrations, and then 0.5 mL aliquots of each dilution were added to the designated wells. After 3 days incubation, cell growth was determined by counting cell number using a coulter counter (Z-M, coulter). Cell counts were-also taken at time 0 and subtracted from the test results to give net growth.

[11] = test system: platelets in dog whole blood
Procedure: as §5, §6, §7

CCCCCCCCCCCCCCCCCCOC[C@@H](N)COP(=O)([O-])OCC[N+](C)(C)C [9(R)]
platelet aggregation response (in words) [1]: clear platelet aggregation response; also recorded: elicited a platelet aggregation response
Relative Platelet Aggregation (Ohms) ([1]; 25 μM): 8 Ohms
Relative Platelet Aggregation (Ohms) ([1]; 100 μM): 16 Ohms
Relative Platelet Aggregation (Ohms) ([1]; 400 μM): 10 Ohms
Relative Platelet Aggregation (Ohms) ([1]; 800 μM): 0 Ohms

CCCCCCCCCCCCCCCCCCOCC(COP(=O)([O-])OCC[N+](C)(C)C)OC [L-ET18OCH3, 1-O-octadecyl-2-O-methyl-glycerophosphocholine, reference compound]
GI50 [2]: 46.6 µM
H50 [3]: 2000, >2000 μM
GI50 [4]: ≥ 25.7 µM
GI50 [5]: 5.5 µM and 6 µM
GI50 [6]: 9.7 to 18.6 µM
GI50 [7]: 6.5 to 9.1 µM
GI50 [8]: 10 to 12.8 µM
% L-ET18OCH3 (DEVDase, 6 hrs) ([9]; 10 μM ether lipid): 100 ± 8.8%
% L-ET18OCH3 (DEVDase, 6 hrs) ([9]; 20 μM ether lipid): 100 ± 10.4%
% L-ET18OCH3 (DEVDase, 6 hrs) ([9]; 30 μM ether lipid): 100 ± 9.3%
GI50 [10]: 1 to 1.5 µM
Platelet aggregation [11]: +++
platelet aggregation response (in words) [11]: elicits a platelet-aggregation response
